Experiment [1] has as its system Human immunodeficiency virus. The experiment can be described thus: Reactivation of latent HIV in human NH1 cells at 5 uM measured after 24 hrs by luciferase based analysis. It is filed as functional, organism-based.
The subject of experiment [2] is Human immunodeficiency virus. Nature of the experiment: Reactivation of latent HIV in human NH2 cells at 5 uM measured after 24 hrs by luciferase based analysis. It is filed as functional, organism-based.

SMILES strings stand for the structures. The source made the active and inactive calls. The rule behind the calls is not given here.

This note sets out measurements from ChEMBL document CHEMBL5233271, “Discovering the Mechanisms of Wikstroelide E as a Potential HIV-Latency-Reversing Agent by Transcriptome Profiling” (J Nat Prod, 2021).

`CC(=O)O[C@@]12C[C@@H](C)[C@@]3(O)[C@@H](C=C(CO)C[C@]4(O)C(=O)C(C)=C[C@@H]34)[C@@H]1C2(C)C`: the outcome in experiment [1] and in experiment [2] was Active.
